Measured values: article PMC6487404, “An Investigation into the Role of P-Glycoprotein in the Intestinal Absorption of Repaglinide: Assessed by Everted Gut Sac and Caco-2 Cell Line” (Iranian Journal of Pharmaceutical Research : IJPR, 2019)
Where two headings read alike, the source gives them in different places.

What was measured:
Caco-2 cell monolayers [1] = assay: Lucifer yellow passage across Caco-2 monolayers (monolayer integrity); type: in vitro ADME; conditions: 100 µg/mL, 37 °C, all the experiments
Protocol: To determine the cell monolayers integrity, the TEER values and percent of Lucifer yellow transport across the cell monolayers were measured. The TEER was measured using an EVOM 2 Epithelial Voltohmmeter (World Precision Instrument, Sarasota, USA). The transport studies were conducted when the TEER values were more than 300-400 Ωcm^2. A reduction in the TEER recorded across a monolayer indicates the dilation of tight junctions or a disruption of the monolayer ([16], [17]). Lucifer yellow is a small hydrophilic fluorescent molecule that is easily detectable by spectrophotofluorometer (485 nm excitation and 535 nm emission). The paracellular transfer of Lucifer yellow was determined and served as an additional marker for the epithelial cell tightness. In each set of experiments, Lucifer yellow was added (100 µg/mL) to the inserts and its passage was evaluated at 37 °C ([18]).
Where TEERmono is the cell monolayer and porous membrane resistance, TEERblank the porous membrane resistance, and A the porous membrane surface area. The Lucifer yellow transport was calculated according to the following equation ([18]):
Lucifer Yellow Passage% = [(Ft − Fb)/(F0 − Fb)] × 100
Ft is the fluorescence intensity of Lucifer yellow across the monolayer, F0 the initial fluorescence intensity of Lucifer yellow on the donor side, and Fb the fluorescence intensity of the blank sample (HBSS/HEPES buffer alone).

[2] = Everted gut sac transport of REG, mucosal to serosal; type: in vitro ADME, rat; conditions: for Increase in drug permeability in presence of inhibitor: everted gut sac
Protocol: The everted sac method was used as previously described ([11]). All animal experiments were approved by the local ethics committee of Shahid Beheshti University of Medical Sciences (Tehran, Iran). Male Wistar rats weighing 230 and 250 g were fasted for 24 h but were allowed free access to water. Under deep anesthesia, the jejunum of the rat intestines (approximately 10 cm) was quickly excised, and the underlying mesenterium was removed. The segment was washed several times with normal saline solution and placed immediately into the oxygenated Krebs buffer (composition: NaCl 118 mM, NaHCO3 25 mM, KCl 4.7 mM, CaCl22.5 mM, MgSO4 1.2 mM, KH2PO4 1.2 mM, and d-glucose 11 mM). The intestine was carefully everted on a glass rod (3.0 mm diameter), filled with 2 mL of Krebs buffer, and divided into sacs approximately 4.5 cm in length with silk suture. The sacs were placed in the oxygenated buffer solution (pH 6.8). The solution was maintained at 37 °C with 95% O2 and 5% CO2 throughout the experiment.
Sacs were placed in 25 mL of oxygenated buffer solutions (pH 6.8) containing different concentrations of REG (10 to 100 µM) with or without the P-gp inhibitors at the typically used inhibitory concentrations: verapamil (100 µM), valspodar (5 µM), or ketoconazole (10 µM) ([12]-[14]). At various time points, 10, 20, 35, 45, 60, and 90 min, sacs were removed, blotted dry, and the serosal contents were collected. REG serosal concentration was determined by a validated HPLC method (Section 2.4). Each sac was weighed before and after the experiment to calculate the fluid volume inside the sac.
(§1) HPLC was conducted using a system consisting of a Wellchrom K-1001 HPLC pump and a K-2700 diode array UV/VIS spectrophotometric detector (Knauer, Germany). The analyses were conducted at ambient temperature on a Perfect Sil RP-18 (150 mm × 4.6 mm i.d., Merck). The optimal mobile phase for REG was a mixture of acetonitrile and phosphate buffer 0.02 M (60:40 V/V) delivered at a flow rate of 1 mL/min. The detection wavelength was set at 242 nm and the injection volume was 100 μL. The column temperature was maintained at room temperature. The calibration curves were linear over the concentration range of 100-1000 ng/mL (R^2 > 0.994). The intra-day and inter-day coefficients of the variation (CV) were all less than 5%.
(§2) Apparent permeability coefficients (Papp) of REG were calculated in everted gut sac and Caco-2 cell line according to the below equation ([19]): […]
(§3) Where the dQ/dt (ng/min) is drug permeation rate, A (cm^2) the cross sectional area, and C0 (ng/mL) the initial concentration of REG in the donor chamber. In Caco-2 cell, the Papp of REG was calculated in both apical to basolateral (papp.AB), and basolateral to apical (papp.BA) directions. The efflux ratio (ER) of the drug in Caco-2 cell was assessed by calculating the ratio of papp.BA to papp.AB (papp.BA/papp.AB). TEER was calculated based on the following equation ([16]): […]

Caco-2 cell monolayers [3] = assay: Bi-directional transport of REG across Caco-2 cell monolayers; type: in vitro ADME; conditions: Caco-2 results, ER and effect of P-gp inhibitors
Protocol: (§4) Caco-2 cells (purchased from Pasteur Institute of Iran) were grown on 75 cm^2 plastic culture flasks, containing 15% (V/V) fetal bovine serum (FBS), 50% RPMI 1640, 34% DMEM and 1% (V/V) penicillin–streptomycin at 37 °C in a 95% humidified air with 5% CO2. The growth medium was changed every other day, and the cells were trypsinized using Trypsin-EDTA every 4 days for passage. The cells with passage numbers of 35-40 were used for the drug transport experiments.
(§5) When reaching 80–90% confluency, for transport study, the cells were seeded on polycarbonate filter inserts (with pore size of 0.4 µm, 1.13 cm^2 surface area, Korea) at a density of 5 × 10^4 cells/cm^2 and grown for 21 days to allow full expression of P-gp and appropriate tight junctions. To evaluate the integrity of cellular monolayer, the transepithelial electrical resistance (TEER) was measured and transport studies were conducted when the TEER values were more than 300-400 Ωcm^2. Before conducting drug transport experiments, the cells were washed twice with HBSS containing 25 mM HEPES (pH 7.4, 37 °C). Then, monolayers were pre-incubated at 37 °C for 30 min, and TEER values were measured. HBSS/HEPES buffer on both sides of the cell monolayers was then removed by aspiration and replaced with REG solution with various concentrations (20, 40 and 60 µM) on one side of the cell layer, apical (A) or basolateral (B), and fresh blank buffer on the other side. The volume of the buffer on the apical and basolateral side of the cell layer was 0.3 mL and 0.7 mL, respectively. The monolayers were incubated at 37 °C, placed in a shaker and shaken at 50 rpm during the transport process. The samples were taken from the receptor chamber (apical side or basolateral side in the case of B-A and A-B transport studies, respectively) at 30, 60, 90, 120 and 180 min, and then replaced with the same volume of the pre-warmed fresh buffer. Each experiment was repeated three times and REG concentration was determined by the HPLC system. The inhibition of REG efflux across Caco-2 cells was examined in the presence of two common P-gp inhibitors: verapamil (100 μM) and valspodar (5 μM).
as §1, §2, §3

P-gp = assay: as above; type: in vitro ADME; conditions: human, Caco-2, mean ± SD, n = 3; for efflux ratio at 180 min, 40 µM: read-out: ER (efflux ratio, papp.BA/papp.AB)
Protocol: as §4, §5, §1, §2, §3

[4] = as above; type: in vitro ADME; conditions: human, Caco-2, mean ± SD, n = 3
Protocol: as §4, §5, §1, §2, §3

[5] = pH 7.4, with valspodar 5 µM, REG 40 µM + valspodar 5 µM
[6] = pH 7.4, with verapamil 100 µM, REG 40 µM + verapamil 100 µM

Lucifer yellow
Transport (passage) of Lucifer yellow across the monolayer (Caco-2 cell monolayers [1]): < 0.3%

CCOc1cc(CC(=O)N[C@@H](CC(C)C)c2ccccc2N2CCCCC2)ccc1C(=O)O [REG, Repaglinide]
Increase in drug permeability in presence of inhibitor ([2]; REG 20 µM plus ketoconazole 10 µM versus control): 3 fold
Increase in drug permeability in presence of inhibitor ([2]; REG 20 µM plus valspodar 5 µM versus control): 2.6 fold
Increase in drug permeability in presence of inhibitor ([2]; REG 20 µM plus verapamil 100 µM versus control): 3 fold
Apparent permeability coefficient (Papp) across everted gut sacs ([2]; REG 40 µM, mucosal to serosal, rat jejunum, pH 6.8, mean ± SD, n = 3): 1.23 ± 0.19 × 10^-5 cm/s
Apparent permeability coefficient (Papp) across everted gut sacs ([2]; REG 100 µM, mucosal to serosal, rat jejunum, pH 6.8, mean ± SD, n = 3): 3.29 ± 0.58 × 10^-5 cm/s
Papp at 90 min, 40 µM ([2]; male, Wistar, rat, pH 6.8, drug concentration 40 µM, read-out: Papp in everted gut sacs (abstract)): 12.3 ×10⁻⁶ cm/s
Papp at 90 min, 100 µM ([2]; male, Wistar, rat, pH 6.8, drug concentration 100 µM, read-out: Papp in everted gut sacs (abstract)): 32.9 ×10⁻⁶ cm/s
Papp at 90 min, 10 µM ([2]; male, Wistar, REG 10 µM, mucosal to serosal, rat jejunum, pH 6.8, mean ± SD, n = 3, read-out: Apparent permeability coefficient (Papp) across everted gut sacs): 12.1 ± 1.4 ×10⁻⁶ cm/s
Papp at 90 min, 20 µM ([2]; male, Wistar, REG 20 µM, mucosal to serosal, rat jejunum, pH 6.8, mean ± SD, n = 3, read-out: Apparent permeability coefficient (Papp) across everted gut sacs): 11.6 ± 0.9 ×10⁻⁶ cm/s
P-gp substrate recognition (FDA guidance criteria) (Caco-2 cell monolayers [3]): cannot be considered as a distinct P-gp substrate
efflux ratio at 180 min, 40 µM (P-gp; Caco-2, pH 7.4, with valspodar 5 µM, REG 40 µM + valspodar 5 µM): 0.68 ± 0.07
efflux ratio at 180 min, 40 µM (P-gp; Caco-2, pH 7.4, with verapamil 100 µM, REG 40 µM + verapamil 100 µM): 0.61 ± 0.09
Papp A→B at 180 min, 40 µM (P-gp; [5]): 16.4 ± 0.5 ×10⁻⁶ cm/s
Papp B→A at 180 min, 40 µM (P-gp; [5]): 11.2 ×10⁻⁶ cm/s
Papp A→B at 180 min, 40 µM (P-gp; [6]): 19.6 ± 2.7 ×10⁻⁶ cm/s
Papp B→A at 180 min, 40 µM (P-gp; [6]): 11.8 ± 1.2 ×10⁻⁶ cm/s
efflux ratio at 180 min, 20 µM ([4]; Caco-2, pH 7.4, REG 20 µM, read-out: ER (efflux ratio, papp.BA/papp.AB)): 0.64 ± 0.02
efflux ratio at 180 min, 40 µM ([4]; Caco-2, pH 7.4, REG 40 µM, read-out: ER (efflux ratio, papp.BA/papp.AB)): 0.65 ± 0.05
efflux ratio at 180 min, 60 µM ([4]; Caco-2, pH 7.4, REG 60 µM, read-out: ER (efflux ratio, papp.BA/papp.AB)): 0.8 ± 0.07
Papp A→B at 180 min, 20 µM ([4]; pH 7.4, REG 20 µM): 16.7 ± 0.4 ×10⁻⁶ cm/s
Papp B→A at 180 min, 20 µM ([4]; pH 7.4, REG 20 µM): 10.7 ×10⁻⁶ cm/s
Papp A→B at 180 min, 40 µM ([4]; pH 7.4, REG 40 µM): 18.4 ± 1.2 ×10⁻⁶ cm/s
Papp B→A at 180 min, 40 µM ([4]; pH 7.4, REG 40 µM): 11.9 ×10⁻⁶ cm/s
Papp A→B at 180 min, 60 µM ([4]; pH 7.4, REG 60 µM): 18.3 ± 0.4 ×10⁻⁶ cm/s
Papp B→A at 180 min, 60 µM ([4]; pH 7.4, REG 60 µM): 14.6 ×10⁻⁶ cm/s
